Patent US12590950B2, “Methods for predicting ER-mediated DNA damage” (UNIVERSITY OF MASSACHUSETTS, priority 2019, dated 2026)

How the values were obtained:
T47D cells = test: 53BP1 immunostaining in T47D cells; assay type: cell-based, human; conditions: E2 10-100 nM, BP3 1-5 μM, PP 1-5 μM
MCF-7 cells = test: 53BP1 immunostaining in MCF-7 cells; assay type: cell-based, human; conditions: E2 10-100 nM, BP3 1-5 μM, PP 1-5 μM
[1] = system: parental 76N-tert cell line; test: S9.6 immunostaining (R-loops) in parental 76N-tert cells without ERα; assay type: cell-based, human; conditions: no ERα
Experimental: Generation of 76N-Tert-ESR1 cells: The 76N-Tert cell line, a human mammary epithelial cell line immortalized with expression of human telomerase reverse transcriptase (TERT) was provided (35). These cells were grown in F-media (250 mL DMEM (-pyruvate) (Gibco #11965-092), 250 mL Ham's F12 (Gibco #11765-054), 5% FBS, 250 ng/mL hydrocortisone (Sigma #H4001), 10 ng/mL human epidermal growth factor (Tonbo Biosciences #21-8356-U100), 8.6 ng/mL cholera toxin vibrio (Millipore Sigma #227035), 1 μg/mL human insulin solution, and 1× antibiotic-antimycotic and passaged every 2-3 days.
Immunostaining: Cells were grown in clearing media for 48 h and plated on 20 mm coverslip in 12 well plates with a density of 2×10^5 cells/well. After 24 h of growth, cells were treated with 10 nM E2, 1 or 5 μM BP3, and 1 or 5 μM PP with or without 1 μM fulvestrant. γH2AX/ERα: Cells were fixed in ice-cold methanol (100%) for 10 mins and quenched with 0.1 M Glycine for 15 mins. Cells were washed with 1×PBS, blocked in 2% BSA/PBS with 0.1% Triton-X 100 for 1 hr at room temperature (RT), incubated overnight with γH2AX antibody (Cell Signaling #9718 S) or ERα antibody (Santa Cruz Biotechnology #sc-8002) at 4° C. and 1 hour with secondary antibody. S9.6: Cells were fixed in ice-cold 100% methanol for 10 min at −20° C., permeabilized in 100% acetone for 1 min at RT, blocked for 30 min in saline sodium citrate pH 7 (SSC, 4×), 3% BSA, 0.1% Triton-X and incubated with S9.6 (Kerafast #ENH001) 2 hr at RT followed by 1 h with secondary antibody. If indicated, slides were treated with RNase H (NEB #M0297L) for 4 hr at 37° C. prior to incubation with primary antibody. Stained cells were mounted with Vectashield mounting medium containing DAPI (Vector Laboratories #H-1200). Slides were imaged at 60× (immersion oil) with Nikon A1 Spectral Confocal microscope. Analysis of γH2AX and S9.6 intensity per nucleus or foci per nucleus was calculated using Nikon analysis software, where DAPI was used as a mask for the nucleus.

mammary epithelium = test: Acute oral exposure of ovariectomized mice: nuclear S9.6 staining of mammary epithelium; assay type: in vivo, mouse; conditions: 4 days, E2 250, BP3 3,000, PP 10,000 μg/kg/day
From the text: Animal Treatment: Forty mature female mice (8 weeks old) BALB/c mice were purchased from Jackson Laboratory and housed in temperature-controlled facilities with a 12-hour alternating day/night light cycle and fed LabChow 5058 ad libitum. All procedures were in accordance with the national guidelines for the care and use of animals and approved by the University of Massachusetts Amherst's Institutional Animal Care and Use Committee.
The mice were ovariectomized before treatment. Briefly, each mouse was anaesthetized with a mix of isofluorance and oxygen. The flanks were shaved, sterilized with betadine and cleaned with alcohol. An incision was made to the skin on the right flank. The underlying muscle layer was nicked to reveal a small hole through which ovary was pulled out by grasping the periovarian fat. A Serrifin clamp was used to hold the ovary. After making sure the blood vessels were constricted to prevent […], the ovary was cut from the uterine horn. The periovarian fat was restored into the peritoneum. The peritoneum was closed with one or two stiches and the skin was closed with 9 mm wound clips. The procedure was repeated on the contralateral side. The mouse was monitored for a week post-procedure and wound clips were removed after 10 days. After 1 week of recovery, the mice began an acute oral treatment via pipette with one of three different compounds prepared in tocopherol-stripped corn oil for 4 days. Each mouse was administered 1 μL of oil per gram of body weight to deliver 250 μg/kg/d E2, 3000 μg/kg/d BP3 or 10000 μg/kg/d PP or vehicle control. […]
Immunostaining of mouse mammary gland: Freshly cut […] paraffin-embedded sections were deparaffinized/rehydrated with 100% xylenes 3 times for 5 min each, 2 times with 100% ethanol for 5 min each, 95% ethanol for 3 min and 70% ethanol for 3 min. […] Analysis of S9.6 intensity per nucleus or foci per nucleus were calculated using Nikon analysis software, where DAPI was used as a mask for the nucleus. […] Positive cells were counted using ImageJ software. 1200 cells were counted to determine percent Ki67 positive.

Row | SMILES | 53BP1 nuclear intensity (T47D cells) | 53BP1 nuclear intensity (MCF-7 cells) | nuclear S9.6 staining [1] | nuclear S9.6 staining in mammary epithelium over control treated animals (mammary epithelium) [fold]
1 | COc1ccc(C(=O)c2ccccc2)c(O)c1 [BP3, 2-Hydroxy-4-methoxybenzophenone] | higher nuclear 53BP1 intensity over control | dose-dependent increase | low nuclear S9.6 staining | 2.5
2 | C[C@]12CC[C@@H]3c4ccc(O)cc4CC[C@H]3[C@@H]1CC[C@@H]2O [E2, 17β-estradiol, reference compound] | dose-dependent increases in 53BP1 nuclear intensity | dose-dependent increases in 53BP1 nuclear intensity | low nuclear S9.6 staining | 3.8
3 | CCCOC(=O)c1ccc(O)cc1 [PP, propyl parahydroxybenzoate] | dose-dependent increases in 53BP1 nuclear intensity | dose-dependent increases in 53BP1 nuclear intensity | low nuclear S9.6 staining | 3.8
